The results in this text go back to patent publication US6284768A, “Src family SH2 domain inhibitors” (Boehringer Ingelheim Pharmaceuticals, Inc., priority 1999, dated 2001).

A word on the Kd: it is a measure of binding affinity in units of concentration. A high value points to lower affinity.

Some results are limits rather than exact numbers.

The target of the first assay is T1, p56lck GST-SH2 (lck SH2 domain) (Homo sapiens, UniProt P06239).
T1 construct: GST (N)
T1 sequence (P06239 127-224 limits assumed): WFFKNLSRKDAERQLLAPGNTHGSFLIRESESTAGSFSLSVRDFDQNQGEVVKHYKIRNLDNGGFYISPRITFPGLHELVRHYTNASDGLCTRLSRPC
In words: Receptor-ligand equilibrium binding constants by surface plasmon resonance (biosensor), lck SH2 domain. Conditions: Table 1, compounds of formula (II). How it is done:
The general methods for the determination of Receptor-Ligand Kinetic and Equilibrium Binding Constants using Surface Plasmon Resonance as applied to the lck SH2 Domain have been described in: M. M. Morelock, R. H. Ingraham, R. Betageri.
General Biosensor Methods.
The mobile phase buffer, 10 mM HEPES, pH 7.4, 150 mM NaCl, and 0.05% P-20, was maintained at a flow rate of 5 μL/min in all experiments. All buffers and protein solutions were filtered through a 0.2 um filter and degassed immediately before use.
Strepavidin was diluted to 0.25 mg/ml in 20 mM NaOAc buffer, pH 4.5 and immobilized by free amine coupling to approximately 3000 RU for all 4 flow cells from a single sensor chip .
Surface Kd Determinations.
The surface was regenerated by 4μL of 20 mM HCl followed by 4 μL of 150 mM Tris base. The values used in the analysis were the equilibrium plateau values from which the sample refractive index has been subtracted. For the data analyzed for linear function the equilibrium plateau values without the sample refractive index subtracted were used. Free solution Kd determinations. In a 96 well microtiter plate 20 nM SH2 domain suspended in running buffer containing 0.2 mg/ml BSA and 1 mM DT'T was distributed in 100 μL per well. The highest concentration of compound tested was added to the last well and titrated with 2 fold dilutions for a final of 10 concentrations to be run. 25 μL of the mixture was injected over a strepavidin-biotin-ε-aminohexanoic acid-EGQpYEEIPIA surface and regenerated with 4 μL of 20 mM HCl. […], of 150 mM Tris base was injected after every 11 samples. Typically 8 assays were run in an overnight programmed run.
(In general: SPR reads the build-up and loss of mass on a sensor chip optically.)
In the case of `COc1ccc(C(C)n2ccc(C)c(NC(=O)[C@H](Cc3ccc(CC(=O)O)cc3)NC(C)=O)c2=O)cc1` (stereo partly shown) [Compound 81], binding was put at a Kd of 23 µM. Molecule `COc1ccc(Cn2ccc(C)c(NC(=O)[C@H](Cc3ccc(N(O)C(=O)C(=O)O)cc3)NC(=O)Cc3cccc4ccccc34)c2=O)cc1` [Compound 1, 3-[2'-(S)-(1'"-Naphthylacetyl)amino-3'-[4"-(N-oxalyl, N-hydroxy)amino]benzene]propanoylamino-1-(4-methoxybenzyl)-4-methyl-2-pyridone] gave a dissociation constant Kd of 2.3 µM. `CCCCCCn1cc(Br)c(C)c(NC(=O)C(Cc2ccc(C(C)(C)C(=O)O)cc2)NC(=O)Cc2ccc3ccccc3c2)c1=O` (stereo not shown) [Compound 238] registered a Kd of 0.72 µM. `Cc1ccn(Cc2ccc(C(=O)C(F)(F)F)cc2)c(=O)c1NC(=O)C(Cc1ccc(C(C)(C)C(=O)O)cc1)NC(=O)Cc1ccc2ccccc2c1` (stereo not shown) [Compound 226] displayed a Kd of 33 µM. As for `Cc1ccn(Cc2ccc(O)cc2)c(=O)c1NC(=O)[C@H](Cc1ccc(C(C)(C)C(=O)O)cc1)NC(=O)C(C)(C)c1cccc2ccccc12` [Compound 134], binding was put at a Kd of 5.7 µM. The same measure, in the same setting: the value for `COc1ccc(Cn2ccc(C)c(NC(=O)[C@H](Cc3ccc(C(C)(C)C(=O)O)cc3)NC(=O)Cc3ccc(N(Cc4ccccc4)Cc4ccccc4)cc3)c2=O)cc1` [Compound 131] was > 1.3 µM.

Take `COc1ccc(Cn2ccc(C)c(NC(=O)[C@H](Cc3ccc(NC(=O)C(=O)O)cc3)NC(=O)Nc3c(C)ccc4ccccc34)c2=O)cc1` [Compound 30]: the dissociation constant (Kd) came out at 0.35 µM. Same read-out and setting: under `COc1ccc(Cn2ccc(C)c(NC(=O)[C@H](Cc3ccc(NC(=O)C(=O)O)cc3)NC(=O)CN3CCc4ccccc4C3)c2=O)cc1` [Compound 29] stands 1.2 µM; under `COc1ccc(Cn2ccc(C)c(NC(=O)[C@H](Cc3ccc(C(CO)C(=O)O)cc3)NC(=O)OCc3ccccc3)c2=O)cc1` (stereo partly drawn) [Compound 50, 3-[2-(S)-Benzyloxycarbonylamino-3-[4'-(1"-(R,S)-carboxy-2"-hydroxy)ethyl]benzene]propanoylamino-1-(4-methoxybentyl)-4-methyl-2-pyridone], 39 µM; under `Cc1ccn(Cc2ccoc2)c(=O)c1NC(=O)C(Cc1ccc(C(C)(C)C(=O)O)cc1)NC(=O)Cc1ccc2ccccc2c1` (stereo not shown) [Compound 202], 2.5 µM. `Cc1ccc(Cn2ccc(C)c(NC(=O)[C@H](Cc3ccc(CC(=O)O)cc3)NC(=O)Cc3cccc4ccccc34)c2=O)cc1` [Compound 56]: binding was put at a Kd of 7.1 µM. `COc1ccc(Cn2ccc(C)c(NC(=O)[C@H](Cc3ccc(CC(=O)O)cc3)NC(=O)Cc3cccc(OC(C)(C)C)c3)c2=O)cc1` [Compound 164] displayed a Kd of 1.6 µM.

On to `COc1ccc(Cn2ccc(C)c(NC(=O)[C@H](Cc3ccc(C(O)C(=O)O)cc3)NC(=O)Cc3cccc4ccccc34)c2=O)cc1` (stereo partly drawn) [Compound 8, 3-[2'-(S)-(1""-Naphthylacetyl)amino-3'-[4"-(1'"-hydroxy-1'"-carboxy)methyl]benzene]propanoylamino-1-(4-methoxybenzyl)-4-methyl-2-pyridone], for which the Kd came out at 0.99 µM. Molecule `CCCCCCn1cc(C(=O)OC)c(C)c(NC(=O)C(Cc2ccc(C(C)(C)C(=O)O)cc2)NC(=O)C(C)(C)c2ccc3ccccc3c2)c1=O` (stereo not shown) [Compound 121] yielded a dissociation constant (Kd) of 2.7 µM. Compared with the last molecule, the Kd is about 2.7-fold higher. With `COc1ccc(Cn2ccc(C)c(NC(=O)[C@H](Cc3ccc(C(F)(F)P(=O)(O)O)cc3)NC(=O)Cc3cccc4ccccc34)c2=O)cc1` [Compound 66], the Kd turned out to be 0.43 µM. For `COc1ccc(Cn2ccc(C)c(NC(=O)[C@H](Cc3ccc(NC(=O)C(=O)O)cc3)NC(=O)Cc3cccc4ccccc34)c2=O)cc1` [Compound 52], the equilibrium dissociation constant (Kd) turned out to be 0.24 µM. Molecule `COc1ccc(Cn2ccc(C)c(NC(=O)[C@H](Cc3ccc(N(O)C(=O)C(=O)O)cc3)NC(C)=O)c2=O)cc1` [Compound 95] yielded a Kd of 5.4 µM. Turning to `COc1ccc(Cn2cc(Br)c(C)c(NC(=O)[C@H](Cc3ccc(C(C)(C)C(=O)O)cc3)NC(=O)C(C)(F)c3ccc(C(F)(F)F)cc3)c2=O)cc1` (stereo partly shown) [Compound 234], the dissociation constant (Kd) is 1.6 µM. `COc1ccc(Cn2ccc(C)c(NC(=O)[C@H](Cc3ccc(CC(=O)O)cc3)NC(=O)COc3cccc4cnccc34)c2=O)cc1` [Compound 84] displayed a Kd of 400 µM. As to `COc1ccc(Cn2ccc(C)c(NC(=O)[C@H](Cc3ccc(NC(=O)C(=O)O)cc3)NC(=O)Cc3nc(-c4ccccc4)sc3C)c2=O)cc1` [Compound 15], binding was put at a Kd of 1.8 µM.

`Cc1ccn(CCc2ccccc2)c(=O)c1NC(=O)C(Cc1ccc(C(C)(C)C(=O)O)cc1)NC(=O)Cc1cccc2ccccc12` (stereo not shown) [Compound 199] came in with a Kd of 9.1 µM.

The molecule `COc1ccc(Cn2ccc(C)c(NC(=O)C(Cc3ccc(C(C)(C)C(=O)O)cc3)N(C)C(=O)Cc3ccc4ccccc4c3)c2=O)cc1` (racemic) [Compound 152, 3-[2'-(R,S)-(N-Methyl-N-(2""-naphthylacetyl)amino-3'-[4"-(1'"-carboxy-1'"-methyl)ethyl]benzene]propanoylamino-1-(4-methoxybenzyl)-4-methyl-2-pyridone] yielded a Kd of 4.5 µM. `COc1ccc(Cn2ccc(C)c(NC(=O)[C@H](Cc3ccc(CC(=O)O)cc3)NC(=O)COc3cc4ccccc4cn3)c2=O)cc1` [Compound 86] displayed an equilibrium dissociation constant (Kd) of 3.3 µM. The molecule `CCCCCCn1ccc(C)c(NC(=O)C(Cc2ccc(C(C)(C)C(=O)O)cc2)NC(=O)Cc2ccccc2OC)c1=O` (stereo not shown) [Compound 207] had an equilibrium dissociation constant (Kd) of 1.7 µM. In turn, `COc1ccc(Cn2ccc(C)c(NC(=O)[C@H](Cc3ccc(CC(=O)O)cc3)NC(=O)Cc3cc(=O)oc4cc(N(C)C)ccc34)c2=O)cc1` [Compound 64] had a Kd of 17 µM. Still for that read-out and setting: the value for `COC1CCC(Cn2ccc(C)c(NC(=O)C(Cc3ccc(C(C)(C)C(=O)O)cc3)NC(=O)C(C)(C)c3ccc4ccccc4c3)c2=O)CC1` (stereo not shown) [Compound 235] was 6.2 µM.

In turn, `COc1ccc(Cn2ccc(C)c(NC(=O)[C@H](Cc3ccc(C(C)(C)C(=O)O)cc3)NC(=O)Cc3ccccc3C)c2=O)cc1` [Compound 113] showed a dissociation constant (Kd) of 0.87 µM. This Kd lies about 7.1-fold lower than the previous one. For `COc1ccc(Cn2cc(/C=C/C(N)=O)c(C)c(NC(=O)C(Cc3ccc(C(C)(C)C(=O)O)cc3)NC(=O)Cc3ccc4ccccc4c3)c2=O)cc1` (racemic) [Compound 221, 3-[2'-(R,S)-(2""-Naphthylacetyl)amino-3'-[4"-(1'"-carboxy-1'"-methyl)ethyl]benzene]propanoylamino-5-acrylamido-1-(4-methoxybenzyl)-4-methyl-2-pyridone], the dissociation constant (Kd) worked out at 0.17 µM. `CCCCCn1ccc(C)c(NC(=O)[C@H](Cc2ccc(CC(=O)O)cc2)NC(=O)Cc2cccc3ccccc23)c1=O` [Compound 70] gave a dissociation constant Kd of 24 µM. `COc1ccc(Cn2ccc(C)c(NC(=O)[C@H](Cc3ccc(CC(=O)O)cc3)NC(=O)COc3cccc4ccccc34)c2=O)cc1` [Compound 72] came in with an equilibrium dissociation constant (Kd) of 2.5 µM. The same measure, in the same setting: the value for `COc1ccc(Cn2ccc(C)c(NC(=O)[C@H](Cc3ccc(CC(=O)O)cc3)NC(=O)Cc3cccc(Oc4ccccc4)c3)c2=O)cc1` [Compound 61] was 3.3 µM.

Still in this assay, the particulars now being: Table 2, compounds of formula (III).
In the case of `COc1ccc(Cn2ncc(C)c(NC(=O)C(Cc3ccc(C(C)(C)C(=O)O)cc3)NC(=O)Cc3ccccc3[N+](=O)[O-])c2=O)cc1` (stereo not shown) [Compound 247], binding was put at a Kd of 5.2 µM.

`COc1ccc(Cn2ncc(C)c(NC(=O)C(Cc3ccc(C(C)(C)C(=O)O)cc3)NC(=O)Cc3ccccc3N)c2=O)cc1` (stereo not shown) [Compound 246] gave an equilibrium dissociation constant (Kd) of 30 µM. Compared with the last molecule, the Kd is about 5.8-fold higher. The same measure, in the same setting: under `COc1ccc(Cn2ncc(C)c(NC(=O)[C@H](Cc3ccc(CC(=O)O)cc3)NC(=O)Cc3cccc4ccccc34)c2=O)cc1` [Compound 243] stands 35 µM.
